Experimental data as given in ChEMBL document CHEMBL1201862, “PubChem BioAssay data set” (2004).
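Where inhibition never reached the appropriate level, the endpoint shown equals the highest concentration tested. Otherwise, values were interpolated linearly from a five-concentration, 48-hour dose response in 96-well plates. At the GI50, growth is halved.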 Activity calls are given as the source filed them. Cut-off read from the data, not from the text of the source: active = GI50 up to about 1.1 µM and inactive = higher.

What was measured:
Assay in all cases: NCI anticancer screen, dose series, 48 h
SF-295 = system: SF-295
OVCAR-3 = system: OVCAR-3
A549 = system: A549
Hs-578T = system: Hs-578T
CAKI-1 = system: CAKI-1
OVCAR-5 = system: OVCAR-5
NCI-H23 = system: NCI-H23
K562 = system: K562
CCRF-CEM = system: CCRF-CEM
OVCAR-4 = system: OVCAR-4
SN12C = system: SN12C
SK-MEL-2 = system: SK-MEL-2
SW-620 = system: SW-620
U-251 = system: U-251
HCC 2998 = system: HCC 2998
HOP-92 = system: HOP-92
IGROV-1 = system: IGROV-1
NCI/ADR-RES = system: NCI/ADR-RES
MDA-MB-231 = system: MDA-MB-231
T47D = system: T47D
SK-MEL-28 = system: SK-MEL-28
LOX IMVI = system: LOX IMVI
NCI-H460 = system: NCI-H460
RPMI-8226 = system: RPMI-8226
NCI-H522 = system: NCI-H522
ACHN = system: ACHN
M14 = system: M14
EKVX = system: EKVX
HCT-15 = system: HCT-15
Malme-3M = system: Malme-3M
COLO 205 = system: COLO 205
SF-539 = system: SF-539
786-0 = system: 786-0
KM12 = system: KM12
UO-31 = system: UO-31
MDA-N = system: MDA-N
HL-60 = system: HL-60
UACC-257 = system: UACC-257
SNB-19 = system: SNB-19
SR = system: SR
TK-10 = system: TK-10
UACC-62 = system: UACC-62
A498 = system: A498
SK-OV-3 = system: SK-OV-3
SF-268 = system: SF-268
OVCAR-8 = system: OVCAR-8
SNB-75 = system: SNB-75
DU-145 = system: DU-145
HCT-116 = system: HCT-116
MOLT-4 = system: MOLT-4
MCF7 = system: MCF7
NCI-H226 = system: NCI-H226
SK-MEL-5 = system: SK-MEL-5
MDA-MB-435 = system: MDA-MB-435
PC-3 = system: PC-3
HOP-62 = system: HOP-62
HT-29 = system: HT-29
RXF 393 = system: RXF 393

Measured: GI50

O=C(O)CCCc1nc2c(n1-c1ccccc1)C(=O)c1ccccc1C2=O
74.5 µM: HCT-15
inactive: SF-295 60 µM | OVCAR-3 33.6 µM | A549 > 100 µM | Hs-578T > 100 µM | CAKI-1 > 100 µM | OVCAR-5 > 100 µM | NCI-H23 65.8 µM | K562 69.8 µM | CCRF-CEM 40.7 µM | OVCAR-4 23.9 µM | SN12C 52.5 µM | SK-MEL-2 97.9 µM | SW-620 > 100 µM | U-251 > 100 µM | HCC 2998 91.8 µM | HOP-92 49 µM | IGROV-1 > 100 µM | NCI/ADR-RES > 100 µM | MDA-MB-231 77.3 µM | T47D > 100 µM | SK-MEL-28 > 100 µM | LOX IMVI > 100 µM | NCI-H460 > 100 µM | RPMI-8226 40.7 µM | NCI-H522 14.2 µM | ACHN 68.1 µM | M14 19.1 µM | EKVX 62.8 µM | Malme-3M 21.6 µM | COLO 205 52.5 µM | SF-539 94 µM | 786-0 > 100 µM | KM12 31.3 µM | UO-31 > 100 µM | MDA-N 43.5 µM | HL-60 37.4 µM | UACC-257 33.2 µM | SNB-19 > 100 µM | SR 77.8 µM | TK-10 > 100 µM | UACC-62 32.8 µM | A498 > 100 µM | SK-OV-3 > 100 µM | SF-268 38.1 µM | OVCAR-8 53.5 µM | SNB-75 43.5 µM | DU-145 > 100 µM | HCT-116 49.1 µM | MOLT-4 68.4 µM | MCF7 32.6 µM

CCN(CC)CCOc1ccc(N2C(=O)c3cccc4cc([N+](=O)[O-])cc(c34)C2=O)cc1
6.64 µM: HCT-15
active: A549 0.977 µM | NCI-H460 0.524 µM | SR 0.372 µM
inactive: SF-295 6.55 µM | NCI-H226 3.79 µM | Hs-578T 14.7 µM | CAKI-1 11.5 µM | OVCAR-5 2.88 µM | NCI-H23 11.6 µM | CCRF-CEM 4.23 µM | OVCAR-4 16.3 µM | SN12C 17.4 µM | SK-MEL-2 16.3 µM | SW-620 7.48 µM | U-251 10.8 µM | HCC 2998 11.6 µM | HOP-92 20 µM | IGROV-1 7.08 µM | NCI/ADR-RES 16.8 µM | MDA-MB-231 18.8 µM | T47D 19.7 µM | SK-MEL-28 12.5 µM | LOX IMVI 3.88 µM | NCI-H522 4.75 µM | SK-MEL-5 12.1 µM | ACHN 3.1 µM | M14 12.4 µM | EKVX 16.3 µM | Malme-3M 13.8 µM | COLO 205 10 µM | SF-539 9.02 µM | 786-0 4.76 µM | KM12 12.5 µM | UO-31 9.12 µM | MDA-N 14.6 µM | HL-60 11.8 µM | MDA-MB-435 11.5 µM | UACC-257 13.1 µM | SNB-19 12.8 µM | PC-3 6.73 µM | TK-10 13.3 µM | HOP-62 1.14 µM | A498 9.62 µM | SF-268 10.9 µM | OVCAR-8 10.9 µM | SNB-75 14.5 µM | DU-145 10.8 µM | HCT-116 3.88 µM | MOLT-4 1.67 µM | HT-29 4.91 µM | MCF7 3.56 µM

O/N=C1/CCCCCC1NO (configuration not stated)
> 100 µM: HCT-15
inactive: SF-295 > 100 µM | OVCAR-3 > 100 µM | NCI-H226 > 100 µM | RXF 393 > 100 µM | A549 > 100 µM | Hs-578T > 100 µM | CAKI-1 > 100 µM | OVCAR-5 > 100 µM | NCI-H23 > 100 µM | OVCAR-4 > 100 µM | SN12C > 100 µM | SK-MEL-2 > 100 µM | SW-620 > 100 µM | U-251 > 100 µM | HCC 2998 > 100 µM | HOP-92 > 100 µM | IGROV-1 > 100 µM | NCI/ADR-RES > 100 µM | MDA-MB-231 > 100 µM | T47D > 100 µM | SK-MEL-28 > 100 µM | LOX IMVI > 100 µM | NCI-H460 > 100 µM | RPMI-8226 > 100 µM | SK-MEL-5 > 100 µM | ACHN > 100 µM | M14 > 100 µM | EKVX > 100 µM | Malme-3M > 100 µM | COLO 205 > 100 µM | SF-539 > 100 µM | 786-0 > 100 µM | KM12 > 100 µM | UO-31 > 100 µM | MDA-N > 100 µM | MDA-MB-435 > 100 µM | UACC-257 > 100 µM | SNB-19 > 100 µM | PC-3 > 100 µM | SR > 10 µM | TK-10 > 100 µM | HOP-62 > 100 µM | UACC-62 > 100 µM | SK-OV-3 > 100 µM | SF-268 > 100 µM | OVCAR-8 > 100 µM | DU-145 > 100 µM | HCT-116 > 100 µM | MOLT-4 > 100 µM | HT-29 > 100 µM | MCF7 > 100 µM

CN1CCN(C2=C(Cl)C3(OCCS3)C(F)(F)C2(F)F)CC1 (configuration not stated)
inactive: SF-295 48.2 µM | OVCAR-3 57 µM | NCI-H226 > 100 µM | RXF 393 > 100 µM | A549 95.9 µM | Hs-578T > 100 µM | CAKI-1 > 100 µM | OVCAR-5 > 100 µM | NCI-H23 27.1 µM | K562 29.8 µM | CCRF-CEM > 100 µM | OVCAR-4 > 100 µM | SN12C > 100 µM | SK-MEL-2 > 100 µM | SW-620 > 100 µM | U-251 39.8 µM | HOP-92 66.5 µM | IGROV-1 > 100 µM | NCI/ADR-RES 79.6 µM | MDA-MB-231 82 µM | T47D 9.35 µM | LOX IMVI 56 µM | RPMI-8226 44.5 µM | NCI-H522 > 100 µM | SK-MEL-5 16.6 µM | ACHN > 100 µM | M14 > 100 µM | EKVX > 100 µM | Malme-3M > 100 µM | COLO 205 43.4 µM | SF-539 > 100 µM | 786-0 > 100 µM | UO-31 55 µM | MDA-N > 100 µM | HL-60 64.4 µM | MDA-MB-435 > 100 µM | UACC-257 27.2 µM | SNB-19 > 100 µM | SR > 100 µM | TK-10 > 100 µM | HOP-62 46.9 µM | UACC-62 > 100 µM | A498 > 100 µM | SK-OV-3 > 100 µM | SF-268 > 100 µM | OVCAR-8 > 100 µM | SNB-75 51.3 µM | DU-145 > 100 µM | HCT-116 > 100 µM | MOLT-4 45.4 µM | HT-29 39.4 µM | MCF7 > 100 µM
79.6 µM: HCT-15

CCN(CCO)C(=O)C1(c2ccccc2)CCCCC1
inactive: SF-295 > 10 µM | OVCAR-3 > 10 µM | NCI-H226 > 10 µM | RXF 393 > 10 µM | A549 > 10 µM | Hs-578T > 10 µM | CAKI-1 > 10 µM | OVCAR-5 > 10 µM | NCI-H23 > 10 µM | K562 > 10 µM | CCRF-CEM > 10 µM | OVCAR-4 > 10 µM | SN12C > 10 µM | SK-MEL-2 > 10 µM | SW-620 > 10 µM | U-251 > 10 µM | HCC 2998 > 10 µM | IGROV-1 > 10 µM | NCI/ADR-RES > 10 µM | MDA-MB-231 > 10 µM | T47D > 10 µM | SK-MEL-28 > 10 µM | LOX IMVI > 10 µM | NCI-H460 > 10 µM | RPMI-8226 > 10 µM | NCI-H522 > 10 µM | SK-MEL-5 > 10 µM | ACHN > 10 µM | M14 > 10 µM | EKVX > 10 µM | Malme-3M > 10 µM | COLO 205 > 10 µM | SF-539 > 10 µM | KM12 > 10 µM | UO-31 > 10 µM | HL-60 > 10 µM | MDA-MB-435 > 10 µM | SNB-19 > 10 µM | PC-3 > 10 µM | SR > 10 µM | TK-10 > 10 µM | HOP-62 > 10 µM | UACC-62 > 10 µM | A498 > 10 µM | SK-OV-3 > 10 µM | SF-268 > 10 µM | OVCAR-8 > 10 µM | SNB-75 > 10 µM | DU-145 > 10 µM | HCT-116 > 10 µM | MOLT-4 > 10 µM | HT-29 > 10 µM | MCF7 > 10 µM
> 10 µM: HCT-15
